Source: PMC2684828 (Analytical chemistry, 2009)

Biological target: T1, Cytochrome P450cam (CYP101) (Pseudomonas putida, UniProt P00183)
T1 sequence (P00183 2-415): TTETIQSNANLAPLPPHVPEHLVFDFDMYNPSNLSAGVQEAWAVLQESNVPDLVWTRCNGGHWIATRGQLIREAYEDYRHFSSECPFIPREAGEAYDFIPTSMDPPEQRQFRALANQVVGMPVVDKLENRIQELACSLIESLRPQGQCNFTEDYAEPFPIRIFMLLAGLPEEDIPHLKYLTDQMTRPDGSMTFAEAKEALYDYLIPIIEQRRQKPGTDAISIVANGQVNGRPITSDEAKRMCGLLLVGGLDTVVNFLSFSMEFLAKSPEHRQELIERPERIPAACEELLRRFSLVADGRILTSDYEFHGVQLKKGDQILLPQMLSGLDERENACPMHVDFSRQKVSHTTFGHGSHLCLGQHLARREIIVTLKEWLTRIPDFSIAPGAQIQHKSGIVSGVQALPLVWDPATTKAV
Assay: enzyme/DNA film biosensor
Format: biochemical

SMILES	Ki
O=C(O)Cc1c[nH]cn1 [Imid.4AA, imidazole-4-acetic acid]	142 µM
c1c[nH]cn1 [Imid., imidazole]	245 µM
